# From patent publication US5250563A, “Inhibitors of HIV protease” (Merck & Co., Inc., priority 1992, dated 1993)
# Molecular target: T1, HIV protease (Human immunodeficiency virus type 1 group M subtype B, UniProt P04585)
# Assay: Assay for Inhibition of Recombinant HIV Protease (tritiated peptide substrate cleavage)
# Format: biochemical
# Set-up: the HIV protease expressed in Escherichia coli; made in house; host or cells: Escherichia coli
# Details: pH 5.5, 60 minutes at 37° C., HIV protease expressed in Escherichia coli, [3H]-peptide substrate
# Description: Assay for Inhibition of Recombinant HIV Protease
# Inhibition studies were performed on the reaction of the HIV protease expressed in Escherichia coli with a tritiated peptide substrate, [^3 H]-acetyl-Val-Ser-Gln-Asn-(beta-napthyl-Ala)-Pro-Ile-Val-Gin-Gly-Arg-Arg-NH2 (MW 1800). The two arginine residues at the carboxyl terminus give this peptide an overall positive charge at acidic pH and enable it to bind to the H^+ form of DOWEX AG-50W-X8 resin and similar resins.
# Aliquots of 25 μl containing 6.0-8.0 nM HIV protease in assay buffer (100 mM sodium acetate, pH 5.5 and 0.1% BSA) are placed in assay tubes. The reaction is initiated by addition of 25 μl aliquots of 4.2 μM tritiated peptide substrate in 100 mM sodium acetate, pH 5.5. After incubation for 60 minutes at 37° C., the reaction is stopped with 100 μl of 5% H3 PO4, then analysed by application of column chromatography.
row,Compound,IC50
1,C=C1C(C)C2C(Cc3ccccc3)NC(=O)C23C(OC(C)=O)C=CC(C)CC(C)CC=CC3C1O (centres unmarked) [Compound 1],10 µM
2,C=C1C(C)C2C(Cc3ccccc3)NC(=O)C23C(OC(C)=O)C=CC(C)CC(CO)CC=CC3C1O (centres unmarked) [Compound 2],43 µM
3,C=C1C(C)C2C(Cc3ccc(O)cc3)NC(=O)C23C(OC(C)=O)C=CC(C)CC(CO)CC=CC3C1O (centres unmarked) [Compound 3],40 µM
4,C=C1C(C)C2C(Cc3cccc(O)c3)NC(=O)C23C(OC(C)=O)C=CC(C)CC(CO)CC=CC3C1O (centres unmarked) [Compound 4],25 µM
5,C=C1C(C)C2C(Cc3ccc(O)c(O)c3)NC(=O)C23C(OC(C)=O)C=CC(C)CC(CO)CC=CC3C1O (centres unmarked) [Compound 5],> 50 µM
6,C=C1C(C)C2C(Cc3ccccc3)NC(=O)C23C(OC(C)=O)C=CC(C)CC(O)(CO)CC=CC3C1O (centres unmarked) [Compound 6],> 50 µM
7,C=C1C(C)C2C(Cc3cccc(O)c3)NC(=O)C23C(OC(C)=O)C=CC(C)CC(O)(CO)CC=CC3C1O (centres unmarked) [Compound 7],> 50 µM

# Molecular target: T1, HIV protease
# Assay: peptide cleavage assay (HIV protease assay)
# Format: biochemical
# Details: not given
row,Compound,IC50
1,C=C1C(C)C2C(Cc3ccccc3)NC(=O)C23C(OC(C)=O)C=CC(C)CC(C)CC=CC3C1O (centres unmarked) [Compound 1],~6.28 µM
